Biological target: T1, EhRho5 (His-EhRho5; EhRacD) (Entamoeba histolytica, UniProt Q24817)
T1 construct: gene RACD; His-tagged (pET28a+), expressed in E. coli BL21(DE3), PCR-amplified full-length gene
Experiment: nucleotide loading, GST-RBD pulldown
Conditions: loaded with 10 mM EDTA; indirect read-out by Rhotekin RBD binding

T1 sequence (C4LV55 entry or part of it): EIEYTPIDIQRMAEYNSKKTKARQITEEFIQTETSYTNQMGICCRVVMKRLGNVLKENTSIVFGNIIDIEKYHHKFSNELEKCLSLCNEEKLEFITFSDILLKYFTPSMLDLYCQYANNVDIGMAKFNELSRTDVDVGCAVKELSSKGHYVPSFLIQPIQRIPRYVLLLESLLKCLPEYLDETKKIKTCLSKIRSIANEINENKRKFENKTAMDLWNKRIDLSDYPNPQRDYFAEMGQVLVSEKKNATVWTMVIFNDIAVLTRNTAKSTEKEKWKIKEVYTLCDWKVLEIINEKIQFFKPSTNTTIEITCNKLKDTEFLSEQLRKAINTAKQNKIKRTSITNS
T1 sequence (Q24817 whole entry): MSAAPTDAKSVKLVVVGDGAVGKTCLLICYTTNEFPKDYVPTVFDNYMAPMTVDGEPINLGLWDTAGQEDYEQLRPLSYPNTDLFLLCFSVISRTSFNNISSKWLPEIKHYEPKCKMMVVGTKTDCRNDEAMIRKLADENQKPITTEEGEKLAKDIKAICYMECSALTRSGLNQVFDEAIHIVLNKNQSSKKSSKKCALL

Structure (SMILES) | nucleotide loading, GST-RBD pulldown
Nc1nc2c(ncn2[C@@H]2O[C@H](COP(=O)(O)OP(=O)(O)O)[C@@H](O)[C@H]2O)c(=O)[nH]1 [GDP] | GDP bound inactive EhRho5 from the GMPPNP (GTP analog) bound EhRho5
Nc1nc2c(ncn2[C@@H]2O[C@H](COP(=O)(O)OP(=O)(O)NP(=O)(O)O)[C@@H](O)[C@H]2O)c(=O)[nH]1 [GMPPNP] | nucleotide bound to His-EhRho5 was exchanged with excess of GMPPNP, a nonhydrolyzable GTP analogue

Reference: PMC9173640, “PI Kinase-EhGEF2-EhRho5 axis contributes to LPA stimulated macropinocytosis in Entamoeba histolytica” (PLoS Pathogens, 2022)
